{
  "source": "paper PMC12373508",
  "about": "“D-cysteine impairs tumour growth by inhibiting cysteine desulfurase NFS1” (Nature Metabolism, 2025)",
  "key": {"[1]": {"biological_target": "T1, NFS1 (Homo sapiens, UniProt Q9Y697)", "test": "X-ray crystal structure after incubation with […] ligand", "type": "binding"}, "[2]": {"biological_target": "NFS1 (Homo sapiens, UniProt Q9Y697, C381S)", "sequence (Q9HD34 whole entry, other chains not shown)": "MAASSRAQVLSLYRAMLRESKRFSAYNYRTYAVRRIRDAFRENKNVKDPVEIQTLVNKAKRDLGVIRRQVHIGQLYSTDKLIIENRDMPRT", "sequence (Q9Y697 56-457 C381S, other chains not shown)": "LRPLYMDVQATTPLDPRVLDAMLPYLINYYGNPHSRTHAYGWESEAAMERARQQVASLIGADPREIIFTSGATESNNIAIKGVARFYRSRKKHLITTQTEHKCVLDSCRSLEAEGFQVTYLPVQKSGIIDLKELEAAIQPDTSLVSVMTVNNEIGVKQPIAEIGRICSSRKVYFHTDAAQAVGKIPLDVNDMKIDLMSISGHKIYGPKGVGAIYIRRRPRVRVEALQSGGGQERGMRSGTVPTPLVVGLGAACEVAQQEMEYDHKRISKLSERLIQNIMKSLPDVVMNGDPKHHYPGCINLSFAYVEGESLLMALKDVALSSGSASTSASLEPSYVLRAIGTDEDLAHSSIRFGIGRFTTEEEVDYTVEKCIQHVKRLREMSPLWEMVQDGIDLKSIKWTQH", "test": "microscale thermophoresis", "type": "binding"}, "[3]": {"biological_target": "T1, NFS1", "test": "reconstituted [2Fe-2S] cluster synthesis by circular dichroism; UV/Vis of Cys-ketimine formation", "type": "biochemical"}},
  "data": [
    {"molecule": "C#CC[C@H](N)C(=O)O", "note": "[PG, L-propargylglycine]", "values": [
      {"measurement": "X-ray crystal structure after incubation with 1 mM ligand", "setting": "[1]", "value": "in the NFS1 active site, we observed an external L-propargylglycine-ketimine"}
    ]},
    {"molecule": "N[C@H](CS)C(=O)O", "note": "[D-Cys, D-cysteine]", "values": [
      {"measurement": "Kd", "setting": "[2]", "value": 25.6, "unit": "µM"},
      {"measurement": "reconstituted [2Fe-2S] cluster synthesis by circular dichroism; UV/Vis of Cys-ke", "setting": "[3]", "value": "when D-Cys is present in excess, the NFS1 enzymatic activity is inhibited"}
    ]},
    {"molecule": "N[C@@H](CS)C(=O)O", "note": "[L-Cys, L-cysteine]", "values": [
      {"measurement": "Kd", "setting": "[2]", "value": 2.15, "unit": "µM"}
    ]}
  ]
}
